Results from paper PMC10317887, “Hypoglycaemia frequency and physiological response after double or triple doses of once-weekly insulin icodec vs once-daily insulin glargine U100 in type 2 diabetes: a randomised crossover trial” (Diabetologia, 2023).
Where two headings read alike, the source gives them in different places.

Assays:
[1] = system: type 1 diabetes; settings: cited from earlier work
From the text: In addition, the low insulin receptor binding affinity of icodec contributes to its long half-life by reducing the clearance rate, as insulin is mainly cleared by internalisation following binding to and activation of the insulin receptor [9, 10]. In case of excess amounts of icodec throughout the body, e.g ...

[2] = system: individuals with type 2 diabetes; assay type: in vivo, human; settings: for Mean PGnadir, estimated geometric mean: all participants; for Time to recovery from PGnadir to PG5.5 mmol/l, estimated geometric mean: constant i.v. glucose 5.5 mg kg^−1 min^−1; for Time to recovery from PGnadir to PG5.5 mmol/l, estimated geometric mean / Glucose needed from PGnadir to PG5.5 mmol/l, estimated geometric mean: individuals with PG <3.3 mmol/l at initiation of recovery; for Time to decline from PG5.5 mmol/l to PG3.9 mmol/l, estimated geometric mean: individuals with PG decline to <3.0 mmol/l and/or hypoglycaemia symptoms; for Time to decline from PG5.5 mmol/l to PG3.0 mmol/l, estimated geometric mean: individuals with PG decline to <3.0 mmol/l; for Mean PGnadir in the subgroup analysis: subgroup PGnadir <3.0 mmol/l and/or symptoms
Protocol: During the two treatment periods, participants received once-weekly icodec for 6 weeks or once-daily glargine U100 for 11 days in randomised order. […] Treatment periods were separated by 35–49 days of washout following icodec and 4–11 days of washout following glargine U100. Icodec (4200 nmol/ml; Novo Nordisk, Bagsværd, Denmark) was administered s.c. in the left thigh at 20:00 hours by qualified site staff using a NovoPen 4 pen injector (Novo Nordisk). […] At the start of week 1, a one-time additional 100% icodec dose was administered to accelerate time to steady state, followed by a normal dose at week 2, a double dose at week 3 (prior to hypoglycaemia induction), no dose at week 4 (due to the double dose given the week before), a normal dose at week 5, and a triple dose at week 6 (prior to hypoglycaemia induction). Insulin glargine U100 (100 U/ml [600 nmol/ml]; Sanofi, Paris, France) was administered s.c. in the right thigh at 09:00 hours by qualified site staff using a SoloStar pen injector (Sanofi). A normal dose of once-daily glargine U100 was established during run in. Glargine U100 was administered at a normal dose for 3 days followed by a double dose on day 4 (prior to hypoglycaemia induction), no dose on day 5 (due to the double dose given the day before), then a normal dose for 5 days, and a triple dose on day 11 (prior to hypoglycaemia induction).
Hypoglycaemia induction was carried out during weeks 3 (double dose) and 6 (triple dose) for icodec and on days 4 (double dose) and 11 (triple dose) for glargine U100 while at steady state. To initiate hypoglycaemia induction, participants should not have experienced hypoglycaemia (PG <3.9 mmol/l) within 24 h or have any relevant medical condition that could confound the outcomes or pose unacceptable risk to the participant. Hypoglycaemia induction (Fig. 1b) was initiated at 16:00 hours 2 days after double/triple icodec dosing (44 h post dose) and on the day of double/triple glargine U100 dosing (7 h post dose). These timings were selected since they approximated the expected time of maximum glucose-lowering effect for both insulin products based on pharmacokinetic/pharmacodynamic modelling performed prior to the trial. For 7.5 h prior to hypoglycaemia induction, PG was kept at 5.5 mmol/l by variable i.v. infusion of glucose (20% wt/vol) or human soluble insulin (100 U/ml in 99.6 ml saline [154 mmol/l NaCl]). PG was measured by a Super GL2 Glucose Analyzer (Dr. Müller Gerätebau, Freital, Germany). Insulin infusion was terminated 60 min prior to hypoglycaemia induction at the latest. PG was maintained at 5.5 mmol/l±20% from 60 min to 30 min prior to hypoglycaemia induction and at 5.5 mmol/l±10% during the last 30 min prior to hypoglycaemia induction. Hypoglycaemia induction was initiated by terminating glucose infusion, thereby allowing PG to decline towards the minimum (nadir) PG target level of no less than 2.5 mmol/l. The handling of alternative scenarios, e.g. PGnadir >2.5 mmol/l, slow PG decline towards hypoglycaemia or slow recovery from hypoglycaemia, is described in electronic supplementary material (ESM) Methods. The investigator recorded if the PGnadir was <3.0 mmol/l or ≥3.0 mmol/l with hypoglycaemic symptoms. The PGnadir level was maintained for 15 min by variable i.v. glucose as needed. Subsequently, euglycaemia was restored by constant i.v. glucose (5.5 mg kg^−1 min^−1) until PG was 5.5 mmol/l, which was maintained until the next morning (between 07:00 hours and 09:00 hours) by variable i.v. glucose. During hypoglycaemia induction, participants remained fasted (except for water ad libitum) and stayed in a supine or semi-supine position (except when cognitive tests were performed). Participants stayed at the clinical site for at least 12 h following each hypoglycaemia induction experiment. […]

[3] = system: individuals with type 2 diabetes; assay: Hypoglycaemia awareness question 'Do you feel hypo?' during hypoglycaemia induction; assay type: in vivo, human; settings: subgroup
Protocol: Hypoglycaemia awareness was determined by asking the question, ‘Do you feel hypo?’, to the participant.

[4] = system: glucagon; assay: Counterregulatory hormone response: plasma glucagon (ELISA); assay type: in vivo, human; settings: plasma, subgroup
Protocol: (§1) Plasma concentrations of glucagon were measured by an enzyme-linked immunosorbent assay (Mercodia AB, Uppsala, Sweden). Plasma concentrations of adrenaline (epinephrine) and noradrenaline (norepinephrine) were measured by liquid chromatography-mass spectrometry (Thermo Fisher Scientific, Dreieich, Germany). Serum concentrations of cortisol and growth hormone were measured by electrochemiluminescent immunoassays (Roche Diagnostics, Mannheim, Germany).

[5] = system: adrenaline (epinephrine); assay: Counterregulatory hormone response: plasma adrenaline (LC-MS); assay type: in vivo, human; settings: plasma, subgroup
Protocol: as §1

[6] = system: noradrenaline (norepinephrine); assay: Counterregulatory hormone response: plasma noradrenaline (LC-MS); assay type: in vivo, human; settings: plasma, subgroup
Protocol: as §1

[7] = system: cortisol; assay: Counterregulatory hormone response: serum cortisol (electrochemiluminescent immunoassay); assay type: in vivo, human; settings: serum, subgroup; for Cortisol at PGnadir, estimated geometric mean: n=19 icodec
Protocol: as §1

[8] = system: growth hormone; assay: Counterregulatory hormone response: serum growth hormone (electrochemiluminescent immunoassay); assay type: in vivo, human; settings: serum, subgroup; for Growth hormone at PGnadir, estimated geometric mean: n=19 icodec
Protocol: as §1

[9] = system: individuals with type 2 diabetes; settings: in vivo
From the text: Safety assessments during the trial included adverse events (AEs), hypoglycaemic episodes (other than those induced), vital signs (other than those assessed during hypoglycaemia induction), electrocardiograms, physical examinations and clinical laboratory assessments (haematology, biochemistry and urinalysis).
AEs and hypoglycaemic episodes (other than those induced) during the treatment periods were summarised. The end of each treatment period was defined as 7 days after the last icodec dose and 2 days after the last glargine U100 dose. […] Hypoglycaemic episodes were classified as level 1 (PG <3.9 mmol/l and ≥3.0 mmol/l), level 2 (PG <3.0 mmol/l) and level 3 (severe cognitive impairment requiring assistance for recovery) [20].

[10] = double dose, n=15 icodec, 13 glargine U100
[11] = double dose, n=20 icodec, 19 glargine U100
[12] = double dose, n=17 icodec, 15 glargine U100
[13] = triple dose, n=18 icodec, 22 glargine U100
[14] = triple dose, n=20 icodec, 29 glargine U100
[15] = triple dose, n=20 icodec, 28 glargine U100

insulin degludec
Participants with clinically significant hypoglycaemia ([1]; type 1 diabetes, triple doses, ref [8], [24]): almost all participants

insulin detemir
Participants with clinically significant hypoglycaemia ([1]; in vivo): 78%

insulin glargine U100
Time to full recovery from hypoglycaemia ([2]; constant i.v. glucose infusion at 5.5 mg kg^−1 min^−1, double and triple doses): ≤ 30 min | Mean PGnadir, estimated geometric mean ([2]; double dose, n=43 icodec, 42 glargine U100): 3.3 mmol/L | Time to recovery from PGnadir to PG5.5 mmol/l, estimated geometric mean [2, 10]: 21.0 min | Glucose needed from PGnadir to PG5.5 mmol/l, estimated geometric mean [2, 10]: 111 mg/kg | Time to decline from PG5.5 mmol/l to PG3.9 mmol/l, estimated geometric mean [2, 11]: 1.1 h | Time to decline from PG5.5 mmol/l to PG3.0 mmol/l, estimated geometric mean [2, 12]: 4.5 h | Mean PGnadir in the subgroup analysis ([2]; double dose): 2.9 mmol/L | Mean PGnadir, estimated geometric mean ([2]; triple dose, n=38 icodec, 40 glargine U100): 2.9 mmol/L | Time to recovery from PGnadir to PG5.5 mmol/l, estimated geometric mean [2, 13]: 23.3 min | Glucose needed from PGnadir to PG5.5 mmol/l, estimated geometric mean [2, 13]: 115 mg/kg | Time to decline from PG5.5 mmol/l to PG3.9 mmol/l, estimated geometric mean [2, 14]: 0.7 h | Time to decline from PG5.5 mmol/l to PG3.0 mmol/l, estimated geometric mean [2, 15]: 2.2 h | Mean PGnadir in the subgroup analysis ([2]; triple dose): 2.7 mmol/L | Proportion of individuals answering 'Yes' to 'Do you feel hypo?' ([3]; double dose, at PG3.0 mmol/l, n=9/17 icodec, 2/15 glargine U100): 13.3% | Proportion of individuals answering 'Yes' to 'Do you feel hypo?' ([3]; double dose, at PGnadir, n=14/20 icodec, 10/19 glargine U100): 52.6% | Proportion of individuals answering 'Yes' to 'Do you feel hypo?' ([3]; triple dose, at PG3.0 mmol/l, n=5/20 icodec, 8/28 glargine U100): 28.6% | Proportion of individuals answering 'Yes' to 'Do you feel hypo?' ([3]; triple dose, at PGnadir, n=9/20 icodec, 15/29 glargine U100): 51.7% | Glucagon at PG3.0 mmol/l, estimated geometric mean [4, 12]: 47.7 ng/L | Glucagon at PGnadir, estimated geometric mean ([4]; double dose, n=19 icodec, 19 glargine U100): 53.1 ng/L | Glucagon at PG3.0 mmol/l, estimated geometric mean [4, 15]: 51.6 ng/L | Glucagon at PGnadir, estimated geometric mean [4, 14]: 59.1 ng/L | Adrenaline at PG3.0 mmol/l, estimated geometric mean [5, 12]: 528.3 pmol/L | Adrenaline at PGnadir, estimated geometric mean [5, 11]: 590.9 pmol/L | Adrenaline at PG3.0 mmol/l, estimated geometric mean [5, 15]: 312.2 pmol/L | Adrenaline at PGnadir, estimated geometric mean [5, 14]: 570.9 pmol/L | Noradrenaline at PG3.0 mmol/l, estimated geometric mean [6, 12]: 853.0 pmol/L | Noradrenaline at PGnadir, estimated geometric mean [6, 11]: 907.4 pmol/L | Noradrenaline at PG3.0 mmol/l, estimated geometric mean [6, 15]: 843.0 pmol/L | Noradrenaline at PGnadir, estimated geometric mean [6, 14]: 890.5 pmol/L | Cortisol at PG3.0 mmol/l, estimated geometric mean [7, 12]: 153.8 nmol/L | Cortisol at PGnadir, estimated geometric mean ([7]; double dose, 19 glargine U100): 300.3 nmol/L | Cortisol at PGnadir, estimated geometric mean ([7]; triple dose, 29 glargine U100): 197.6 nmol/L | Cortisol at PG3.0 mmol/l, estimated geometric mean [7, 15]: 122.9 nmol/L | Growth hormone at PG3.0 mmol/l, estimated geometric mean [8, 12]: 4.1 µg/L | Growth hormone at PGnadir, estimated geometric mean ([8]; double dose, 19 glargine U100): 3.5 µg/L | Growth hormone at PGnadir, estimated geometric mean ([8]; triple dose, 29 glargine U100): 3.5 µg/L | Growth hormone at PG3.0 mmol/l, estimated geometric mean [8, 15]: 2.4 µg/L | AE rate [9]: 21.3 AEs per participant-year of exposure | Duration of level 2 hypoglycaemic episodes, mean±SD [9]: 37.7 ± 15.0 min | Number of AEs reported [9]: 33 AEs | Rate of clinically significant hypoglycaemic episodes (level 2, PG <3.0 mmol/l) [9]: 3.0 episodes per participant-year of exposure | Severe hypoglycaemic episodes (level 3) [9]: no severe hypoglycaemic episodes | Participants with clinically significant hypoglycaemia ([1]; in vivo): almost all participants

neutral protamine Hagedorn insulin
Participants with clinically significant hypoglycaemia ([1]; in vivo): 78%
